Data published in ChEMBL document CHEMBL1201862, “PubChem BioAssay data set” (2004).
Calls of active or inactive are those of the source.

Tests used:
[1] = molecular target: fMet-Leu-Phe receptor (Homo sapiens, UniProt P21462); test: FPR ligands, dose response (AID 519); assay type: functional
[2] = molecular target: Endoplasmic reticulum aminopeptidase 1 (Homo sapiens, UniProt Q9NZ08); test: ERAP1 aminopeptidase inhibitors, dose response, biochemical, cherry-pick, set 2, plate reader (AID 743314)
[3] = inhibitors of firefly luciferase expression or activity, dose response, H4 neuroglioma cells, luminescence (AID 1990); assay type: functional, cell-based
[4] = tested on: Streptococcus sp. 'group A'; test: growth inhibition of control SK(-) GAS strain, dose response, counter-screen for streptokinase expression inhibitor project, luminescence, kanamycin, BacTiterGlo, confirmation (AID 1900); assay type: functional, organism-based
[5] = Luminescence Cell-Based Dose Response HTS to Identify Inhibitors of 5'UTR Stem-Loop Driven Prion Protein mRNA Translation in H4 Neuroglioblastoma Cells. [Related pubchem assays: 1827 (Project Summary), 1813 (Primary HTS)]; assay type: functional
[6] = molecular target: T1, Heat shock factor protein 1 (Mus musculus, UniProt P38532); test: inhibition of MG132-induced HSE-luciferase signal, confirmation, cell-based, NIH3T3, luminescence, dose retest (AID 2382); assay type: functional;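 further: NIH3T3 fibroblasts with HSF1-driven luciferase reporter stressed by proteasome inhibitor MG132; luminescence from HSF1-driven luciferase expression after 8 hours of MG132 stress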
T1 sequence (P38532 whole entry): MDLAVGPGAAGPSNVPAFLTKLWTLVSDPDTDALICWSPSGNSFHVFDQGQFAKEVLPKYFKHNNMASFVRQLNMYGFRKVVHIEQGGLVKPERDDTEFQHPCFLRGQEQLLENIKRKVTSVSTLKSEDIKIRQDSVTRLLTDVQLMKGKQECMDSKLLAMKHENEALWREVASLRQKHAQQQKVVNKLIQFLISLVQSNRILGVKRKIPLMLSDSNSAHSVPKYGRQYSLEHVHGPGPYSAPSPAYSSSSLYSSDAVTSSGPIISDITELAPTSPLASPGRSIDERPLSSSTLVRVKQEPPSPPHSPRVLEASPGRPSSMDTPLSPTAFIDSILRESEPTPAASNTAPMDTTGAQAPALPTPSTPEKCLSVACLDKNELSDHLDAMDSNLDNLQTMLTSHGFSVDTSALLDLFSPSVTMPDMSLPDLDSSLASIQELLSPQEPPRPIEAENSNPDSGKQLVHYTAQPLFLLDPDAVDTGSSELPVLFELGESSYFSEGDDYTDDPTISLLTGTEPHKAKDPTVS

[7] = inhibitors of SNCA 5'UTR-driven reporter translation, confirmation, H4 neuroglioma cells, luminescence (AID 1988); assay type: functional, cell-based
[8] = molecular target: T2, Streptokinase A (Streptococcus pyogenes serotype M1, UniProt P10520); test: S. pyogenes streptokinase expression inhibitors, potency, dose response, plasminogen activation absorbance, OD405 (AID 1914); assay type: functional, Streptococcus pyogenes M1 GAS;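 further: secreted streptokinase activity via plasminogen activation per viability signal from cell pellet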
T2 sequence (P10520 whole entry): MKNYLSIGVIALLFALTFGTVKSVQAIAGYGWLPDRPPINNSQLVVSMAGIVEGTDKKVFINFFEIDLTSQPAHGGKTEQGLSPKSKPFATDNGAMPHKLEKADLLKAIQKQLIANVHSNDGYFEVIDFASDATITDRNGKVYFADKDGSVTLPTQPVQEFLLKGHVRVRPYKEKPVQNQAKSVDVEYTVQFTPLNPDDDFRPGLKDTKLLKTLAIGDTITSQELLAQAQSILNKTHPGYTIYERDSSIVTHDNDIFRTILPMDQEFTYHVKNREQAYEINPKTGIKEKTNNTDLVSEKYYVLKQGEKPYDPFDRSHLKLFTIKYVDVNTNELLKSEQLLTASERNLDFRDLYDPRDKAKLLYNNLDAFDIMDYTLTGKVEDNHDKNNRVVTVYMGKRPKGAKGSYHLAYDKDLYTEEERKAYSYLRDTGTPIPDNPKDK

[9] = inhibitors of intracellular T. cruzi replication, confirmation, NIH3T3 host cells, beta-gal luminescence (AID 2044); assay type: functional, cell-based;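 further: intracellular parasites grown in NIH/3T3 mouse fibroblasts as host cells; luminescent beta-galactosidase reporter signal from transgenic T. cruzi replicating inside host cells; inhibitors lower the luminescence signal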
[10] = molecular target: Induced myeloid leukemia cell differentiation protein Mcl-1 (Homo sapiens, UniProt Q07820); assay type: functional
[11] = tested on: Streptococcus; test: Group A Streptococcus viability loss, dose response, counter-screen for streptokinase expression inhibitor project, luminescence, BacTiterGlo (AID 1915); assay type: functional, organism-based;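 further: potency for reduction of bacterial viability or growth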
[12] = molecular target: T3, Replicative DNA helicase DnaB (Mycobacterium tuberculosis, UniProt P9WMR3); test: DnaB intein splicing inhibitors, dose response, biochemical, cell-free fluorescence (AID 449749); assay type: functional
T3 sequence (P9WMR3 whole entry): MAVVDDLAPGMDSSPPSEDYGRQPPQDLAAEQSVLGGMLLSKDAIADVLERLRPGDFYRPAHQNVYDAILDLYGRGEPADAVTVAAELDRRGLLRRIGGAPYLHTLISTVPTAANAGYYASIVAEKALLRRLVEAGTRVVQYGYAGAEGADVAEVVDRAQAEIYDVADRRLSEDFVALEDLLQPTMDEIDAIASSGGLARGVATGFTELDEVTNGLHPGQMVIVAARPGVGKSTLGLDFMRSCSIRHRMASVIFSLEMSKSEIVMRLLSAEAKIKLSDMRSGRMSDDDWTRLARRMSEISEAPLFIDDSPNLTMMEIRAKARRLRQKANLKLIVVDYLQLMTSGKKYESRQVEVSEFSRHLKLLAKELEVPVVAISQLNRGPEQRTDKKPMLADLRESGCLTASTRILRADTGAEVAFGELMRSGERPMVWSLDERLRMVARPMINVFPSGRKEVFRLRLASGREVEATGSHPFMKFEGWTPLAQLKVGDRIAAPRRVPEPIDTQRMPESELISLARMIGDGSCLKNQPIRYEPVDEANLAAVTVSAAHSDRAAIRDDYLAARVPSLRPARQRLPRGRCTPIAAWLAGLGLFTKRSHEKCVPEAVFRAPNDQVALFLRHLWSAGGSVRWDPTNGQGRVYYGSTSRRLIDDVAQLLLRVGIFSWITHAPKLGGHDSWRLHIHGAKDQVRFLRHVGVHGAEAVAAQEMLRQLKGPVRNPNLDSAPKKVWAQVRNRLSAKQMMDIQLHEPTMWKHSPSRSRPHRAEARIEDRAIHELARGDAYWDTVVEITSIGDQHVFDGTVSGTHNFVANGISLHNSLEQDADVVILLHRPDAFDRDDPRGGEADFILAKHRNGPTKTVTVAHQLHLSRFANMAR

[13] = molecular target: T4, Protein RecA (Mycobacterium tuberculosis, UniProt P9WHJ3); test: Fluorescence Cell-Free Homogeneous Dose Retest to Identify Inhibitors of RecA-Intein Splicing Activity. [Related pubchem assays (depositor defined):AID2097, AID2223, AID489010, AID492950]; assay type: functional
T4 sequence (P9WHJ3 whole entry): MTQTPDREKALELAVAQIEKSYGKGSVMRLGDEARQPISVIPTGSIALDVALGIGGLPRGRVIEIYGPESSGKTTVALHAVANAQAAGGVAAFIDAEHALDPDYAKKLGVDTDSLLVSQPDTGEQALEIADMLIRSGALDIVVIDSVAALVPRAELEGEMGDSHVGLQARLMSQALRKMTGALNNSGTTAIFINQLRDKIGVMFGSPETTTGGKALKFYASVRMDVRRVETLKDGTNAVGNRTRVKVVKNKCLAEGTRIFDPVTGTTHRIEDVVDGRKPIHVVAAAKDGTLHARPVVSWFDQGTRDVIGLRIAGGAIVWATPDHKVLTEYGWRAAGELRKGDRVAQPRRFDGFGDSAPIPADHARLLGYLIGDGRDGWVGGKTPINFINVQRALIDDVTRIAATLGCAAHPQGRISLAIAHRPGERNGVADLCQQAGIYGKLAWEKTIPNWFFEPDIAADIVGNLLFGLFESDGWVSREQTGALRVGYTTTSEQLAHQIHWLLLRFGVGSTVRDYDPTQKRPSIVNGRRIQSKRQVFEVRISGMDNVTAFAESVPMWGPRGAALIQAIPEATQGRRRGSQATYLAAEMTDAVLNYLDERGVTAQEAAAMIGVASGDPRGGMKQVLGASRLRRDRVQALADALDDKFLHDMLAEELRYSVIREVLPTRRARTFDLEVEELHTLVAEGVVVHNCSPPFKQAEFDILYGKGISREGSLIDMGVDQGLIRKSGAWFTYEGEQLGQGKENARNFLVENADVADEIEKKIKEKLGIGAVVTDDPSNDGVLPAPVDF

[14] = molecular target: Mu-type opioid receptor (Homo sapiens, UniProt P35372); assay type: functional, cell-based;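 further: U2OS cells with beta-arrestin recruitment to OPRM1 by beta-gal complementation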
[15] = molecular target: 5-hydroxytryptamine receptor 2A (Mus musculus, UniProt P35363); assay type: functional, cell-based;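 further: CHO-K1 cells with tagged receptor and beta-arrestin; agonist potency measured as compound-induced activation of the receptor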
[16] = molecular target: Paired box protein Pax-8 (Homo sapiens, UniProt Q06710); test: inhibitors of PAX8-driven TPO luciferase reporter, dose response, RMG-I cells, cherry-pick (AID 687027); assay type: functional, cell-based;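 further: luciferase reporter driven by Pax8 target thyroperoxidase promoter measured by SteadyGlo luminescence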
[17] = non-specific cell cytotoxicity, dose response, cytotoxicity control for PAX8 inhibitor project, plate reader, dry powder samples (AID 743021); assay type: functional, cell-based
[18] = tested on: H9c2; test: cells; assay type: functional, cell-based; details: Rattus norvegicus, H9c2, Myocardium;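 further: confirmatory concentration-response retest of ultra-high-throughput screening hits for modulation of myocardial damage; cell death induced by hydrogen peroxide oxidative stress; compound pretreatment for 60 min then peroxide exposure for 2 h; potency is for protecting the cells against peroxide damage rather than for killing them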

Sequence of Paired box protein Pax-8 (Q06710 whole entry): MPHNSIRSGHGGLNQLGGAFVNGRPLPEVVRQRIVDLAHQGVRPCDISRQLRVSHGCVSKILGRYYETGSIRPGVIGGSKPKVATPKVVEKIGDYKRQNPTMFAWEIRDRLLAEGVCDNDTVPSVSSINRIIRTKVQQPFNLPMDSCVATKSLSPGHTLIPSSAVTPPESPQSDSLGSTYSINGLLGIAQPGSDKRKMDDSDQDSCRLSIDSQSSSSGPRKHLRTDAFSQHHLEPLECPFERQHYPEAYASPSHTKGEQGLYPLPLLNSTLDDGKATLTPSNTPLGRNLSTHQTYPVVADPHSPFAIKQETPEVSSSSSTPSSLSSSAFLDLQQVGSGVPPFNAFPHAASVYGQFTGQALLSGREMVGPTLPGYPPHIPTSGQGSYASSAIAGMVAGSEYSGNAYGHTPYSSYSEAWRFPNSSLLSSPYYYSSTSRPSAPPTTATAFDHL
Sequence of fMet-Leu-Phe receptor (P21462 whole entry): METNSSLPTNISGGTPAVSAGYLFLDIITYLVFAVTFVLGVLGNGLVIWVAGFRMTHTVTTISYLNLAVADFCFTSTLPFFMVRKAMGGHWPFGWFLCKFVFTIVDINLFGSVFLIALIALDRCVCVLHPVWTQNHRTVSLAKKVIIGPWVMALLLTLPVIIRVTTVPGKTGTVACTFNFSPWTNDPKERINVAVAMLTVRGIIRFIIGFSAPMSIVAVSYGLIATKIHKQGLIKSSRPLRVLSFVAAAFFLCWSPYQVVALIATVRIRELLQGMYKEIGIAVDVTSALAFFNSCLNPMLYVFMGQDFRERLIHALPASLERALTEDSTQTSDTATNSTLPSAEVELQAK
Sequence of Endoplasmic reticulum aminopeptidase 1 (Q9NZ08 whole entry): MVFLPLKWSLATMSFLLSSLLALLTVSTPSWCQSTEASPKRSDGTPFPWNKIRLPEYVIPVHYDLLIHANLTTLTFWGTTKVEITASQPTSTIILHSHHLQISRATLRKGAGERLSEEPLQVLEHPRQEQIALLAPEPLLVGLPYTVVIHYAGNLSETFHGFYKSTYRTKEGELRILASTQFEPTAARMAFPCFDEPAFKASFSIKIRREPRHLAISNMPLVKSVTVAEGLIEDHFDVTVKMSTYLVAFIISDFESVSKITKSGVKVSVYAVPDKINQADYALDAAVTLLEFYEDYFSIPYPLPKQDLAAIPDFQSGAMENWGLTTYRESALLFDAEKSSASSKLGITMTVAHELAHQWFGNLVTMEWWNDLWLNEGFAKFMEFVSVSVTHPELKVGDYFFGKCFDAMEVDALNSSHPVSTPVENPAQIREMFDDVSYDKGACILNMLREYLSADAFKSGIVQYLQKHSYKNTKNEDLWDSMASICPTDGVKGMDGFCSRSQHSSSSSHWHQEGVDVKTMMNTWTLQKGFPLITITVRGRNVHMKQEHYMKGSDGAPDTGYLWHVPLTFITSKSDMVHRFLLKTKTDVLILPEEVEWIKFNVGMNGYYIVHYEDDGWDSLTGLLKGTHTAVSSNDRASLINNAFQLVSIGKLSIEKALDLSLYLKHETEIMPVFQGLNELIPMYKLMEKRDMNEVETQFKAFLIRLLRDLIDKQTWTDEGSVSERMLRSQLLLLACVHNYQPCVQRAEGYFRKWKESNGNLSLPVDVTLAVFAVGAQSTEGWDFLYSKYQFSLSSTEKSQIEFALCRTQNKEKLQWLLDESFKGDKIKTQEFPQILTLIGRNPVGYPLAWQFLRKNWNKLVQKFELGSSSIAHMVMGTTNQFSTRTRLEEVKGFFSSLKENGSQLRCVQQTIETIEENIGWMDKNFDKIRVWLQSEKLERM
Sequence of 5-hydroxytryptamine receptor 2A (P35363 whole entry): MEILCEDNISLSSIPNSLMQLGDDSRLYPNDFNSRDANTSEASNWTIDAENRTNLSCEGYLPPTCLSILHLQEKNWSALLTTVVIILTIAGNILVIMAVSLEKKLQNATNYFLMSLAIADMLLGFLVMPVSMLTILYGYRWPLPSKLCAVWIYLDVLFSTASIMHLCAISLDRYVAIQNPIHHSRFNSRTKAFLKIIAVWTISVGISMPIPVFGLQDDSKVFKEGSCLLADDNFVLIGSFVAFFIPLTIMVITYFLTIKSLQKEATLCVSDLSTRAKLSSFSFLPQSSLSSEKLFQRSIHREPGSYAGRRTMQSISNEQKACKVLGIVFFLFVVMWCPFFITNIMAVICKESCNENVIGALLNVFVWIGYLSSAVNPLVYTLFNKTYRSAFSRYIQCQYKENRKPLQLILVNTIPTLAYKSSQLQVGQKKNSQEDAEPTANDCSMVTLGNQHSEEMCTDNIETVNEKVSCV
Sequence of Induced myeloid leukemia cell differentiation protein Mcl-1 (Q07820 whole entry): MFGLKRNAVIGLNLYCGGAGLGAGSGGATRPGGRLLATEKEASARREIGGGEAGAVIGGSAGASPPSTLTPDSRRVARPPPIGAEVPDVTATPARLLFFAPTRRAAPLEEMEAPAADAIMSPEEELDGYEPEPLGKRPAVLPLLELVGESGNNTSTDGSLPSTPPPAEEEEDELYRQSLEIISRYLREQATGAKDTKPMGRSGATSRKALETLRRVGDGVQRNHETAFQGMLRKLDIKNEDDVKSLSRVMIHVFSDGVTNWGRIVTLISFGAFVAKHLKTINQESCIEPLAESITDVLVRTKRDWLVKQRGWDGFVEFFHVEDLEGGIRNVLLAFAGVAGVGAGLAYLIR
Sequence of Mu-type opioid receptor (P35372 whole entry): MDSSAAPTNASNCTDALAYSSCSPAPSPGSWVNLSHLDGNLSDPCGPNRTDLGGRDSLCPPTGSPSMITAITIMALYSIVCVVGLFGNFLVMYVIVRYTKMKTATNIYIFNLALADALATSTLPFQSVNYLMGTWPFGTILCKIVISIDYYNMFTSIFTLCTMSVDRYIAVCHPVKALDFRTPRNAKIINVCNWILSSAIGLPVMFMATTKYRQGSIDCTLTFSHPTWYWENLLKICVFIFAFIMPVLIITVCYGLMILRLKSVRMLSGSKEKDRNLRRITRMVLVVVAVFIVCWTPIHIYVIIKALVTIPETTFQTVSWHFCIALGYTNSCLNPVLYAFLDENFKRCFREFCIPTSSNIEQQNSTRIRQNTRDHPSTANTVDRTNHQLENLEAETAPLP

With `COc1ccc(Cl)cc1-n1c(=S)sc2c(O)nc(SCC(=O)NCC3CCCO3)nc21` (configuration not stated) the Ki [1] was 9.3 µM (active).

In the case of `COCC(=O)N1[C@@H]2Cn3c(ccc(/C=C/c4ccccc4)c3=O)[C@H]1[C@@H](C(=O)N1CCOCC1)[C@@H]2CO`, the AC50 [2] is reported as 6.74 µM (active).

With `O=C(NCCc1ccncc1)[C@H]1N[C@H]2c3ccc(/C=C/c4ccccc4)c(=O)n3C[C@H]2[C@@H]1CO` the AC50 [2] was 14.1 µM (active).

For `Cc1cc(N/N=C/c2ccc(O)c(C)c2O)nc(-c2ccccc2O)n1`, the EC50 [3] was > 60 µM (not active), the EC50 [4] was 4.48 µM (active) and the EC50 [5] was 13.1 µM (active). For the same molecule, the EC50 [6] was 3.71 µM (active), the EC50 [7] was > 120 µM (not active) and the EC50 [8] was > 150 µM (not active). For the same molecule, the EC50 [9] was 1.1 µM (active), the IC50 [10] was 3.3 µM (active) and the EC50 [11] was 8.71 µM (active). The AC50 [12] was > 380 µM (inactive), the EC50 [13] was > 380 µM (inconclusive) and the EC50 [14] was 92.5 µM (inactive). For the same molecule, the EC50 [15] was 7.6 µM (active), the AC50 [16] was 4.54 µM (active) and the AC50 [17] was 14.1 µM (active).

In the case of `C=C1C(C)C2C(Cc3ccccc3)NC(=O)C23OC(=O)/C=C/C(O)CCCC(C)C/C=C/C3C1O` (configuration not stated), the IC50 [18] is reported as > 79 µM (inactive), the AC50 [16] is reported as 3.15 µM (active) and the AC50 [17] is reported as 3.36 µM (active).

For `CC1(C)S[C@@H]2[C@H](NC(=O)C(C(=O)O)c3ccccc3)C(=O)N2[C@H]1C(=O)O` (some centres not stated) [CARBENICILLIN DISODIUM], the Ki [1] was > 66.7 µM (inactive).
